From ChEMBL document CHEMBL1132674, “Design, synthesis and DNA-cleavage of Gly-Gly-His-naphthalene diimide conjugates” (Bioorg Med Chem Lett, 1999) come the findings set out here.

The assay is described as follows: Binding constant of the compound.

Compound `CN(CCCN)CCCN1C(=O)c2ccc3c4c(ccc(c24)C1=O)C(=O)N(CCCN(C)CCCNC(=O)C(Cc1c[nH]cn1)NC(=O)CNC(=O)CN)C3=O` (configuration not stated) showed a Binding constant of 100000 M⁻¹. `CN(CCCNC(=O)C(Cc1c[nH]cn1)NC(=O)CNC(=O)CN)CCCN1C(=O)c2ccc3c4c(ccc(c24)C1=O)C(=O)N(CCCN(C)CCCNC(=O)C(Cc1c[nH]cn1)NC(=O)CNC(=O)CN)C3=O` (configuration not stated) registered a Binding constant of 100000 M⁻¹.
